≈ marks a conversion by molar mass, not a printed value.
Columns and labels:
ABTS scavenging activity = assay type: biochemical
Description: For the determination of the antioxidant activity of the synthesized compounds, the previously reported method for ABTS scavenging activity was used with slight modification. The stock solution of 2.4 mM of potassium per sulfate solution and 7 mM ABTS solution was prepared by mixing them in equal volumes for 16 h. The stock solution thus prepared was diluted using methyl alcohol to give absorption of 0.7 ± 0.02 units when studied at the wavelength of 734 nm using a spectrophotometer. Fresh ABTS solution was prepared for each ABTS scavenging assay. About 150 μL of the ABTS working solution was added to 50 μL of synthesized compounds and kept in darkness for 10 min. […] Methanol was used as blank, and standard ascorbic acid was run at the same time. The absorbance was calculated utilizing a microplate reader at 734 nm.

DPPH scavenging activity = assay type: biochemical
Description: The antioxidant assay of the synthesized compounds was conducted following the previously reported method. A freshly prepared DPPH solution (50 μL of 1.0 × 10^−3 M) was added in methyl alcohol. Methanol was used as a control in this experiment. The prepared mixture was subjected to incubation at 25°C for 30 min. A decrease in the DPPH free radical concentration was calculated using a spectrophotometer at a wavelength of 517 nm. After incubation ascorbic acid was used as a positive control. The antioxidant activity was determined as a percent (%) of inhibition using the formula given:(1) percent inhibition=absorbancecontrol−absorbancesample/absorbancecontrol×100.

α-glucosidase = assay: in vitro α-glucosidase inhibition; assay type: biochemical
Description: For in vitro α-glucosidase activity, samples were prepared by adding glucopyranoside to phosphate buffer solvent, and different concentrations of the synthesized compounds (31.25, 62.5, 125, 250, and 500 µg/ml), respectively, were added to this solution and then the enzyme glucosidase in distilled water (0.5 µg/ml) was also added to the above mixture. The reaction mixture thus prepared was subjected to incubation at 37°C for 20 minutes. The reaction was halted by adding HCl after incubation of the mixture. The intensity of the color was determined at 540 nm by spectrophotometer, and the formula given below was used for the determination of percent inhibition:(2) percent inhibition=absorbancecontrol−absorbancesample/absorbancecontrol×100.

α-amylase = assay: in vitro α-amylase inhibition; assay type: biochemical
Description: The starch solution was added, following incubation of the mixture, and the reaction mixture thus prepared was kept in water bath at 100°C for some time. Microplate reader measured the intensity of the color at 656 nm. Following formula was used to determine percentage inhibition:(3) percent inhibition=absorbancecontrol−absorbancesample/absorbancecontrol×100.

[1] = test system: diabetic mice (by alloxan); assay: antidiabetic activity in diabetic mice (by alloxan); assay type: in vivo
Description: Alloxan was used for the induction of diabetes mellitus according to reported procedure. Recently prepared Alloxan (ALX) was injected intraperitoneally to animals, fasting for 16 h, at a single dose of (150 mg/kg). […] Only diabetic animals, having random blood glucose level more than 200 mg/dl, were selected for studies. All the experimental procedure were approved from the ethical committee department of pharmacy, University of Swabi via letter No; UOS-06/2021.
A total of 30 animals were used to determine the hypoglycemic effect of the synthesized derivatives of succinimide. The experimental animals were segregated in six groups […], having five (5) animals in each group. Group I was designated as normal group and was given normal saline I/P only. Group II was given Tween 80, and Group III was given standard drug (glibenclamide) after the induction of diabetes. Group IV, Group V, and Group VI were given the various doses of synthesized compounds, respectively. […]

mice = assay: oral glucose tolerance test (OGTT); assay type: in vivo; details: glucose 2 g/kg orally
Description: To perform OGTT mice fasted overnight were used including both control and treated mice. Glucose was administered orally at the dose of 2 g/kg against glibenclamide as standard drug. After administration of glucose, blood glucose level was calculated at time intervals of 0, 30, 60, and 120 min for assessment of the impact of exogenously given D-glucose on treated mice. OGTT was carried out 5 days before the completion of the study.
To perform OGTT, mice fasted overnight were used including both control and treated mice. Glucose was administered orally at the dose of 2 g/kg against glibenclamide as a standard drug. After administration of glucose, blood glucose level was calculated at time intervals of 0, 30, 60, and 120 min for assessment of the impact of exogenously given D-glucose on treated mice.

With O=C1CCCCC1C1CC(=O)N(Cc2ccccc2)C1=O (stereo not drawn) [BW2, Benzyl-3-(2-Oxocyclohexyl) Pyrrolidine-2,5-Dione] the “IC50 (ABTS)” value (ABTS scavenging activity) was 12.87 µg/mL (≈ 45.1 µM), the “(%) ABTS inhibitions” value (ABTS scavenging activity; 31.25 µg/ml) was 57.40 ± 0.76^∗∗∗ % and the “(%) ABTS inhibitions” value (ABTS scavenging activity; 62.50 µg/ml) was 61.35 ± 0.51^∗∗∗ %. For the same compound, the “(%) ABTS inhibitions” value (ABTS scavenging activity; 125 µg/ml) was 66.90 ± 0.96^∗∗∗ %, the “(%) ABTS inhibitions” value (ABTS scavenging activity; 250 µg/ml) was 71.08 ± 0.47^∗∗∗ % and the “(%) ABTS inhibitions” value (ABTS scavenging activity; 500 µg/ml) was 76.85 ± 2.24^∗∗∗ %. For the same compound, the “IC50 (DPPH)” value (DPPH scavenging activity) was 12.81 µg/mL (≈ 44.9 µM), the “(%) DPPH inhibitions” value (DPPH scavenging activity; 31.25 µg/ml) was 56.65 ± 1.34^∗∗∗ % and the “(%) DPPH inhibitions” value (DPPH scavenging activity; 62.50 µg/ml) was 61.58 ± 1.12^∗∗∗ %. The “(%) DPPH inhibitions” value (DPPH scavenging activity; 125 µg/ml) was 66.40 ± 0.25^∗∗∗ %, the “(%) DPPH inhibitions” value (DPPH scavenging activity; 250 µg/ml) was 71.67 ± 1.20^∗∗∗ % and the “(%) DPPH inhibitions” value (DPPH scavenging activity; 500 µg/ml) was 75.09 ± 0.32^∗∗∗ %. For the same compound, the “IC50 (α-glucosidase)” value (α-glucosidase) was 10.81 µg/mL (≈ 37.9 µM), the “% inhibitions (α-glucosidase)” value (α-glucosidase; 31.25 µg/ml) was 62.44 ± 0.55^∗∗ % and the “% inhibitions (α-glucosidase)” value (α-glucosidase; 62.50 µg/ml) was 68.47 ± 0.52^∗∗∗ %. For the same compound, the “% inhibitions (α-glucosidase)” value (α-glucosidase; 125 µg/ml) was 74.39 ± 0.49^∗∗∗ %, the “% inhibitions (α-glucosidase)” value (α-glucosidase; 250 µg/ml) was 81.34 ± 0.55^∗ % and the “% inhibitions (α-glucosidase)” value (α-glucosidase; 500 µg/ml) was 87.36 ± 0.49^∗ %. The “IC50 (α-amylase)” value (α-amylase) was 15.34 µg/mL (≈ 53.8 µM), the “% inhibitions (α-amylase)” value (α-amylase; 31.25 µg/ml) was 55.85 ± 0.17^∗∗∗ % and the “% inhibitions (α-amylase)” value (α-amylase; 62.50 µg/ml) was 63.72 ± 0.11^∗∗∗ %. The “% inhibitions (α-amylase)” value (α-amylase; 125 µg/ml) was 67.44 ± 0.15^∗∗∗ %, the “% inhibitions (α-amylase)” value (α-amylase; 250 µg/ml) was 73.14 ± 0.49^∗∗∗ % and the “% inhibitions (α-amylase)” value (α-amylase; 500 µg/ml) was 78.69 ± 0.14^∗∗∗ %. For the same compound, the “Change in body weight” value ([1]; dose 31.25 μg/kg) was −6.8 Gm, the “Decrease in blood glucose after 15 days” value ([1]; dose 31.25 μg/kg) was 35 mg/dL and the “Blood glucose level, 0 day” value ([1]; dose 31.25 μg/kg) was 452 mg/dL. For the same compound, the “Blood glucose level, 4th day” value ([1]; dose 31.25 μg/kg) was 448 mg/dL, the “Blood glucose level, 7th day” value ([1]; dose 31.25 μg/kg) was 431 mg/dL and the “Blood glucose level, 10th day” value ([1]; dose 31.25 μg/kg) was 425 mg/dL. The “Blood glucose level, 15th day” value ([1]; dose 31.25 μg/kg) was 417 mg/dL, the “Change in body weight” value ([1]; dose 62.5 μg/kg) was −4.6 Gm and the “Decrease in blood glucose after 15 days” value ([1]; dose 62.5 μg/kg) was 58 mg/dL. The “Blood glucose level, 0 day” value ([1]; dose 62.5 μg/kg) was 386 mg/dL, the “Blood glucose level, 4th day” value ([1]; dose 62.5 μg/kg) was 359 mg/dL and the “Blood glucose level, 7th day” value ([1]; dose 62.5 μg/kg) was 349 mg/dL. For the same compound, the “Blood glucose level, 10th day” value ([1]; dose 62.5 μg/kg) was 336 mg/dL, the “Blood glucose level, 15th day” value ([1]; dose 62.5 μg/kg) was 328 mg/dL and the “Change in body weight” value ([1]; dose 125 μg/kg) was −3.7 Gm. For the same compound, the “Decrease in blood glucose after 15 days” value ([1]; dose 125 μg/kg) was 68 mg/dL, the “Blood glucose level, 0 day” value ([1]; dose 125 μg/kg) was 437 mg/dL and the “Blood glucose level, 4th day” value ([1]; dose 125 μg/kg) was 431 mg/dL. The “Blood glucose level, 7th day” value ([1]; dose 125 μg/kg) was 422 mg/dL, the “Blood glucose level, 10th day” value ([1]; dose 125 μg/kg) was 394 mg/dL and the “Blood glucose level, 15th day” value ([1]; dose 125 μg/kg) was 369 mg/dL. For the same compound, the “Change in body weight” value ([1]; dose 250 μg/kg) was “+3.4 Gm”, the “Decrease in blood glucose after 15 days” value ([1]; dose 250 μg/kg) was 111 mg/dL and the “Blood glucose level, 0 day” value ([1]; dose 250 μg/kg) was 466 mg/dL. For the same compound, the “Blood glucose level, 4th day” value ([1]; dose 250 μg/kg) was 461 mg/dL, the “Blood glucose level, 7th day” value ([1]; dose 250 μg/kg) was 443 mg/dL and the “Blood glucose level, 10th day” value ([1]; dose 250 μg/kg) was 407 mg/dL. The “Blood glucose level, 15th day” value ([1]; dose 250 μg/kg) was 355 mg/dL, the “Change in body weight” value ([1]; dose 500 μg/kg) was “+7.4 Gm” and the “Decrease in blood glucose after 15 days” value ([1]; dose 500 μg/kg) was 199 mg/dL. The “Blood glucose level, 0 day” value ([1]; dose 500 μg/kg) was 456 mg/dL, the “Blood glucose level, 4th day” value ([1]; dose 500 μg/kg) was 402 mg/dL and the “Blood glucose level, 7th day” value ([1]; dose 500 μg/kg) was 361 mg/dL. The “Blood glucose level, 10th day” value ([1]; dose 500 μg/kg) was 303 mg/dL, the “Blood glucose level, 15th day” value ([1]; dose 500 μg/kg) was 257 mg/dL and the “OGTT blood glucose, 0 minutes” value (mice; 0 minutes) was 163.7 mg/dL. The “OGTT blood glucose, 30 minutes” value (mice; 30 minutes) was 189.2 mg/dL, the “OGTT blood glucose, 60 minutes” value (mice; 60 minutes) was 214.8 mg/dL and the “OGTT blood glucose, 120 minutes” value (mice; 120 minutes) was 151.4 mg/dL.
